Experimental findings from patent US11485741B2, “Macrocyclic toll-like receptor 7 (TLR7) agonists” (BRISTOL-MYERS SQUIBB COMPANY, priority 2018, dated 2022) are described below.

One assay addresses T1, human TLR7 (Homo sapiens, UniProt Q9NYK1).
T1 construct: host or cells: HEK-Blue TLR7 cells (engineered human embryonic kidney cells)
T1 sequence (Q9NYK1 27-1049): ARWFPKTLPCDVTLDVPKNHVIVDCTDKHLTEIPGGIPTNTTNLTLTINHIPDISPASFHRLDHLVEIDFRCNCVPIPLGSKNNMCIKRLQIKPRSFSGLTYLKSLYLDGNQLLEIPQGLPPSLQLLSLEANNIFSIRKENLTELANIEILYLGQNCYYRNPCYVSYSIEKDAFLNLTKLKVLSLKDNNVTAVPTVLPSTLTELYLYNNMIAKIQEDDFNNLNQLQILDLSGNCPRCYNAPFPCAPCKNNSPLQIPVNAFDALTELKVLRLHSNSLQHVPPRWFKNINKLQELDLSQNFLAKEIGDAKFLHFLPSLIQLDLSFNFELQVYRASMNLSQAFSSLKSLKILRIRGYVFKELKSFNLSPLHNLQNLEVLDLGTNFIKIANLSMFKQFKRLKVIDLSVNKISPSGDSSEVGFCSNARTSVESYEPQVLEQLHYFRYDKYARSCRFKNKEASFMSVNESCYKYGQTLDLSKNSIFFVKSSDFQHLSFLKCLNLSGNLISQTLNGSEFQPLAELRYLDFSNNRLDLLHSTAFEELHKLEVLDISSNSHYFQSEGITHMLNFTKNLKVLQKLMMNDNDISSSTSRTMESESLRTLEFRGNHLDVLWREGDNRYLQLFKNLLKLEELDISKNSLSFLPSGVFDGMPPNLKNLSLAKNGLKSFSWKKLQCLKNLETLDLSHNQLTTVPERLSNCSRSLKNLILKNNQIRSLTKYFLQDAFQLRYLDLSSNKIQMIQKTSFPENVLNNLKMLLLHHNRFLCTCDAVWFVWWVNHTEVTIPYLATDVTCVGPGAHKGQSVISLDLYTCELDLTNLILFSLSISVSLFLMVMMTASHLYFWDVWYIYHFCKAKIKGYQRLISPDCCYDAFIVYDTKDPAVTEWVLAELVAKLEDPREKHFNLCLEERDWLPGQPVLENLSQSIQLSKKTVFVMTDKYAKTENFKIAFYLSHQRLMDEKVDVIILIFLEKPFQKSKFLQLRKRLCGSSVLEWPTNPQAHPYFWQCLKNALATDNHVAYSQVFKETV
In words: HEK-Blue TLR7 reporter assay (SEAP reporter). As to conditions: HEK-Blue TLR7 cells, 18 h treatment, SEAP readout; average if more than one assay; read-out: TLR7 Agonism HEK Blue ™ Assay EC50. It is filed as cell-based. An excerpt:
Table A presents biological activity data for compounds disclosed herein. One set of data relates TLR7 agonism activity using the HEK-Blue™ TLR7 reporter assay, as described in Example 11 hereinbelow. Another set of data relates to the induction of interleukin 6 (IL-6), a cytokine that plays an important role in the TLR7 pathway. […] In some instances, more that one TLR7 agonism or IL-6 induction assay was made; if so, the reported value is an average.
This example describes a method for assaying TLR7 agonist activity of the compounds disclosed in this specification.
HEK-Blue™ TLR7 cells were added to each well of a 384-well tissue-culture plate (15,000 cells per well) and incubated 16-18 h at 37° C., 5% CO2. Compounds (100 nl) were dispensed into wells containing the HEK-Blue™ TLR cells and the treated cells were incubated at 37° C., 5% CO2. After 18 h treatment ten microliters of freshly-prepared Quanti-Blue™ reagent (Invivogen) was added to each well, incubated for 30 min (37° C., 5% CO2) and SEAP levels measured using an Envision plate reader (OD=620 nm). […] EC50's can be determined with software such as Graphpad Prism™.
For orientation: Reporter assays use an easily measured gene product as a stand-in for the process of interest.

Another assay has as its system interleukin 6 (IL-6). The assay can be described thus: Interleukin 6 induction assay in human whole blood (AlphaLISA). It is filed as cell-based. The following applies: Homo sapiens, 20 h, 20 h at 37° C., 100% set by resiquimod reference at 10 μM, average if more than one assay, read-out: IL-6 Induction EC50 (nM) (normalized 10 μM). An excerpt:
Table A presents biological activity data for compounds disclosed herein. One set of data relates TLR7 agonism activity using the HEK-Blue™ TLR7 reporter assay, as described in Example 11 hereinbelow. Another set of data relates to the induction of interleukin 6 (IL-6), a cytokine that plays an important role in the TLR7 pathway. […] In some instances, more that one TLR7 agonism or IL-6 induction assay was made; if so, the reported value is an average. This example describes a method for assaying interleukin 6 (IL 6) induction by compounds disclosed in this specification. Compounds suspended in DMSO were transferred to individual wells of a Matrix Technologies clear, V-bottom 384-well plate using ECHO acoustic liquid handling technology (25 nL per well). Human whole-blood samples (25 uL) were added to each well using a CyBio FeliX liquid handling instrument and the plate was shaken on a plate shaker for three minutes before incubating the reaction mixtures at 37° C. for 20 h. Basel RPMI 1640 medium (supplemented with L-glutamine) was then added to each well (25 uL per well) prior to liberating plasma from each sample by centrifugation (450×g, 5 min, ambient temperature). Treated plasma samples (3 uL) were subsequently transferred to individual wells of a white, shallow, 384-well ProxiPlate (PerkinElmer) using the FeliX liquid handling instrument and their IL6 levels were measured using AlphaLISA technology as described by the manufacturer (PerkinElmer).

A word on the EC50: it is the concentration that produces a half-maximal response.

As to `Nc1nc2nc3c1nc(O)n3Cc1ccc(-c3cnn(CC(=O)NC4CNC4)c3)c(c1)C/C=C/CCO2` [IIb-38], the figures for the half-maximal effective concentration (EC50) at human TLR7 and in the assay with interleukin 6 (IL-6) were 22 nM and 1000 nM, respectively.
The matching figures for `Nc1nc2nc3c1nc(O)n3Cc1ccc(-c3cc(C(=O)NCCCN4CCCC4=O)[nH]n3)c(c1)C/C=C/CCO2` [IIb-40]: 14 nM and 160 nM.
The matching figures for `Nc1nc2nc3c1nc(O)n3Cc1ccc(OC3CCNCC3)c(c1)C/C=C/CCO2` [IIc-01]: 3.7 nM and 5 nM.
The matching figures for `Nc1nc2nc3c1nc(O)n3Cc1cc(cc(OC3CCNCC3)c1)C/C=C/CCO2` [IIc-02]: 23 nM and 200 nM.
For `Nc1nc2nc3c1nc(O)n3Cc1ccc(Nc3cccc(CNC4CCC4)c3)c(c1)C/C=C/CCO2` [IId-01], the EC50 at human TLR7 was 15 nM; in the assay with interleukin 6 (IL-6) it was 60 nM.
In the case of `Nc1nc2nc3c1nc(O)n3Cc1ccc(OCC(=O)NC3CNC3)c(c1)C/C=C\CCO2` [IIe-01], the EC50 at human TLR7 came out at 5.3 nM; in the assay with interleukin 6 (IL-6) it was 40 nM.
Taken in the same sequence, the figures for `Nc1nc2nc3c1nc(O)n3Cc1ccc(OCC(=O)NC3CNC3)c(c1)C/C=C/CCO2` [IIe-02] were 70 nM and 1100 nM.
